result_ITMP, activation and PL_Result data for 75 molecules are collected here from paper PMC13083723 (Patterns, 2026).

Residues, ends and D or L forms follow the SMILES beside them.

This assay concerns Vero-E6 cells. As to the kind of experiment: cells. The settings on record: for activation at 10 µM: Chlorocebus sabaeus, Vero C1008, 24 h, read-out: PL_Result. The assay is classed as cell-based.

For the molecule `CCNC(=O)C[C@@H]1N=C(c2ccc(Cl)cc2)c2cc(OC)ccc2-n2c(C)nnc21` [I-BET-762, reference compound], the result_ITMP worked out at 13.27 percent effect.

Turning to `CCN(CC)CC1CCCCN1CC(=O)N1c2ccccc2C(=O)Nc2cccnc21` (stereo not drawn) [SPE_A00520476], the activation at 10 µM is -3.51%.

Take `CC(O)c1cc(C(=O)N[C@@H](C)Cn2ccc(-c3ccc(C#N)c(Cl)c3)n2)n[nH]1` (stereo partly drawn) [SPE_A01259528]: the activation at 10 µM is -15.4%.

`NC[C@H]1O[C@H](O[C@H]2C(O[C@@H]3O[C@H](CO)[C@@H](O)[C@H]3O)[C@@H](O)[C@H](N)C[C@@H]2N)[C@H](N)[C@@H](O)[C@@H]1O` (stereo partly drawn) [SPE_A03826781]: the activation at 10 µM is -7.3%.

Turning to `CCc1ccc(C(=O)C(C)CN2CCCCC2)cc1` (stereo not drawn) [SPE_A04252265], the activation at 10 µM is -4.05%.

For `CC(C)NCC(O)c1ccc(O)c(O)c1` (stereo not drawn) [SPE_A04322457], the activation at 10 µM was -1.28%.

As to `Cc1nnc(C(C)C)n1C1CC2CCC(C1)N2CC[C@H](NC(=O)C1CCC(F)(F)CC1)c1ccccc1` (stereo partly drawn) [SPE_A04352665], the activation at 10 µM was -15.3%.

In the case of `CC(=O)O[C@H]1C[C@@]2(C)[C@@H](C[C@@H](O)C3[C@]2(C)CC[C@H]2[C@H](C)[C@H](O)CC[C@]32C)/C1=C(/CCC=C(C)C)C(=O)O` (stereo partly drawn) [SPE_A06935312], the activation at 10 µM is -11.6%.

For the molecule `CC(C)CC(NC(=O)C1CCCN1)C(=O)NCC(N)=O` (stereo not drawn) [SPE_A09911125] (H-Pro-Leu-Gly-NH2; configuration not given here), the activation at 10 µM is -6.88%.

As for `Nc1ncnc2c1ncn2C1O[C@H](COP(=O)(O)O)[C@@H](O)[C@H]1O` (stereo partly drawn) [SPE_A10111329], the activation at 10 µM was -12.1%.

For `C[C@@H]1C[C@H]2[C@@H]3CCC4=CC(=O)C=C[C@]4(C)[C@@]3(F)[C@@H](O)C[C@]2(C)[C@@]1(O)C(=O)CO` [SPE_A10188456], the activation at 10 µM was -8.72%.

As to `CCn1ccnc1CC1COc2ccccc2O1` (stereo not drawn) [SPE_A10903566], the activation at 10 µM was 2.21%.

For the molecule `CN1C2CCCC1CC(NC(=O)c1nn(C)c3ccccc13)C2` (stereo not drawn) [SPE_A10967948], the activation at 10 µM was determined as 3.5%.

In the case of `O=C(O)[C@@H]1C[C@@H](O)CN1` [SPE_A12454076], the activation at 10 µM was -8.44%.

As for `NC(C(=O)O)c1nnn[nH]1` (stereo not drawn) [SPE_A14757586], the activation at 10 µM was -5.28%.

For `CC(C)OC(=O)c1cc2c(OCC(O)CNC(C)(C)C)cccc2[nH]1` (stereo not drawn) [SPE_A15530910], the activation at 10 µM is 15.8%.

`CN1C(CSCC(F)(F)F)Nc2cc(Cl)c(S(N)(=O)=O)cc2S1(=O)=O` (stereo not drawn) [SPE_A15739803]: the activation at 10 µM came to 0.385%.

Take `CN(C)C(=O)Oc1cc(OC(=O)N(C)C)cc(C(O)CNC(C)(C)C)c1` (stereo not drawn) [SPE_A17462676]: the activation at 10 µM was -4.78%.

For `NC(C(=O)O)c1cc(O)cc(O)c1` (stereo not drawn) [SPE_A20589515], the activation at 10 µM is 2.18%.

As to `O=C(C1CCCCC1)N1CC(=O)N2CCc3ccccc3C2C1` (stereo not drawn) [SPE_A21858158], the activation at 10 µM is -0.34%.

In the case of `COc1cc([S+](C)[O-])ccc1-c1nc2ncccc2[nH]1` (stereo not drawn) [SPE_A22081593], the activation at 10 µM was -4.2%.

Regarding `CCN(CC)CCOC(=O)C(c1ccccc1)C1CCCCC1` (stereo not drawn) [SPE_A22267103], the activation at 10 µM was determined as 53.9%.

Consider `NCC(CS(=O)(=O)O)c1ccc(Cl)cc1` (stereo not drawn) [SPE_A24122750], for which the activation at 10 µM was -1.21%.

Regarding `CCC(=O)c1ccc(OCC(O)CN2CCN(c3ccccc3)CC2)cc1` (stereo not drawn) [SPE_A28958257], the activation at 10 µM was -1.6%.

As to `CN(C)CCOC(c1ccc(Cl)cc1)c1ccccn1` (stereo not drawn) [SPE_A29426959], the activation at 10 µM was -7.35%.

Turning to `CCCCCC(=O)O[C@]1(C(C)=O)CCC2C3CCC4=CC(=O)CC[C@]4(C)C3CC[C@@]21C` (stereo partly drawn) [SPE_A29731977], the activation at 10 µM is -5.02%.

With `CC(C)N(CCC(C(N)=O)(c1ccccc1)c1ccccn1)C(C)C` (stereo not drawn) [SPE_A29734509], the activation at 10 µM came out at 1.87%.

On to `NC1CCN(c2cccnc2)C1` (stereo not drawn) [SPE_A29844814], for which the activation at 10 µM was -9.03%.

For the molecule `CCN1C(=O)NC(c2ccccc2)C1=O` (stereo not drawn) [SPE_A30205217], the activation at 10 µM is -4.7%.

Turning to `CS(=O)(=O)c1ccc(C(O)[C@H](CF)NC(=O)C(Cl)Cl)cc1` (stereo partly drawn) [SPE_A30886737], the activation at 10 µM amounted to 3.66%.

Take `O=C(O)CC1CC(c2ccccc2)=NO1` (stereo not drawn) [SPE_A32269193]: the activation at 10 µM is -19.4%.

In the case of `Clc1ccc(C(Cn2ccnc2)OCc2ccsc2Cl)c(Cl)c1` (stereo not drawn) [SPE_A33084557], the activation at 10 µM is 4.51%.

Turning to `Cc1cn(C2CC(N=[N+]=[N-])C(CO)O2)c(=O)[nH]c1=O` (stereo not drawn) [SPE_A33692381], the activation at 10 µM is -1.92%.

For the molecule `Clc1ccc(C(Cn2ccnc2)OCc2ccc(Sc3ccccc3)cc2)c(Cl)c1` (stereo not drawn) [SPE_A33697453], the activation at 10 µM was found to be 17.3%.

For the molecule `CCCCC1C(=O)N(c2ccccc2)N(c2ccc(O)cc2)C1=O` (stereo not drawn) [SPE_A33749298], the activation at 10 µM turned out to be 2.66%.

Consider `CC(CCc1ccccc1)NC(C)C(O)c1ccc(O)cc1` (stereo not drawn) [SPE_A36267905], for which the activation at 10 µM was -4.99%.

In the case of `CC(C)(C)NCC(O)c1ccccc1Cl` (stereo not drawn) [SPE_A37441042], the activation at 10 µM amounted to 4.82%.

On to `CCC1(c2ncc[nH]2)Cc2ccccc2O1` (stereo not drawn) [SPE_A38747044], for which the activation at 10 µM was determined as 2.93%.

Turning to `CC(C)(C)NCC(O)COc1cccc2[nH]c(=O)[nH]c12` (stereo not drawn) [SPE_A40084411], the activation at 10 µM came out at 1.76%.

Regarding `COc1cc2c(cc1OC)[C@@]13CCN4CC5=CCOC6CC(=O)N2C1[C@H]6[C@H]5C[C@H]43` (stereo partly drawn) [SPE_A41995253], the activation at 10 µM worked out at 1.19%.

In the case of `CC(C)(C)NCC(O)COc1cccc2c1CCC(=O)N2` (stereo not drawn) [SPE_A42167015], the activation at 10 µM stood at 2.81%.

In the case of `O=C(O)COCCN1CCN(C(c2ccccc2)c2ccc(Cl)cc2)CC1` (stereo not drawn) [SPE_A42571354], the activation at 10 µM is -3.1%.

For the molecule `CC(C)CCCC(C)[C@H]1CCC2C3CC=C4C[C@@H](O)CC[C@]4(C)C3CC[C@@]21C` (stereo partly drawn) [SPE_A42883684], the activation at 10 µM is -4.75%.

In the case of `C=CC(C)(O)CCC=C(C)C` (stereo not drawn) [SPE_A43082461], the activation at 10 µM was -7.7%.

Turning to `O=C(O)CC(S)C(=O)O` (stereo not drawn) [SPE_A43435802], the activation at 10 µM is 5.6%.

As to `CC(CN(C)C)C(C)(O)Cc1ccc(Cl)cc1` (stereo not drawn) [SPE_A43809092], the activation at 10 µM was -8.69%.

Regarding `CCOc1ccccc1O[C@@H](c1ccccc1)[C@@H]1CNCCO1.CCOc1ccccc1O[C@H](c1ccccc1)[C@H]1CNCCO1` [SPE_A43974499], the PL_Result turned out to be 14.61.

With `C[N+]12CCC(CC1)C(OC(=O)C(O)(c1ccccc1)c1ccccc1)C2` (stereo not drawn) [SPE_A46066006], the activation at 10 µM came out at 2.01%.

Turning to `CNC1CCCN(c2c(F)cc3c(=O)c(C(=O)O)cn(C4CC4)c3c2OC)C1` (stereo not drawn) [SPE_A47790386], the activation at 10 µM is 3.04%.

As to `CCc1ccc(CCOc2ccc(CC3SC(=O)NC3=O)cc2)nc1` (stereo not drawn) [SPE_A48430263], the activation at 10 µM was -1.25%.

Take `CC(CNS(=O)(=O)C(C)C)c1ccc(-c2ccc(C#N)cc2)cc1` (stereo not drawn) [SPE_A50062753]: the activation at 10 µM was -2.67%.

Take `COc1ccc(COc2cc3oc(=O)c4cc(C(C)O)ccc4c3cc2OC)cc1` (stereo not drawn) [SPE_A50998626]: the activation at 10 µM is -7.77%.

`NCC1CC(=O)N(Cc2ccccc2)C1` (stereo not drawn) [SPE_A51355958]: the activation at 10 µM is 2%.

With `OC(CN1CCN(c2cccc(Cl)c2)CC1)C(c1ccccc1)c1ccccc1` (stereo not drawn) [SPE_A51829654], the activation at 10 µM was -10.3%.

As for `CCC[N+]12C3C[C@H](C4C(O)[C@]5(C[C@@H]41)c1ccccc1N(C)[C@@H]35)[C@H](CC)[C@H]2O` (stereo partly drawn) [SPE_A53539450], the activation at 10 µM is -3.5%.

Take `CC1(C)S[C@@H]2[C@H](NC(=O)C(C(=O)O)c3ccsc3)C(=O)N2[C@H]1C(=O)O` (stereo partly drawn) [SPE_A55051145]: the activation at 10 µM was -6.58%.

In the case of `C=C[C@@]1(C)CC(=O)[C@@]2(O)[C@](C)(O1)[C@@H](OC(C)=O)[C@@H](O)C1C(C)(C)CC[C@H](O)[C@@]12C` (stereo partly drawn) [SPE_A55416093], the activation at 10 µM is -12.3%.

`COc1ccc2c(c1)nc([S+]([O-])Cc1ncc(C)c(OC)c1C)[n]2[Mg][n]1c([S+]([O-])Cc2ncc(C)c(OC)c2C)nc2cc(OC)ccc21` (stereo not drawn) [SPE_A56892734]: the activation at 10 µM was -9.5%.

`Nc1ncnc2c1ncn2C1CCCO1` (stereo not drawn) [SPE_A56987319]: the activation at 10 µM was determined as 0.343%.

For `C[N+]1(C)CCc2cc3c(cc2[C@H]1[C@@H]1OC(=O)c2c1ccc1c2OCO1)OCO3` [SPE_A57798559], the activation at 10 µM was -11.7%.

For the molecule `O=C(O)C(Cc1ccccc1)NCc1ccc(Cl)cc1` (stereo not drawn) [SPE_A57806482], the activation at 10 µM was found to be 2.25%.

With `CCC1NC(=O)c2cc(S(N)(=O)=O)c(Cl)cc2N1` (stereo not drawn) [SPE_A59303141], the activation at 10 µM was -4.81%.

With `CCCN(C/C=C/I)C1CCc2cccc(O)c2C1` (stereo not drawn) [SPE_A60594020], the activation at 10 µM is 6.75%.

For `O=C(O)C1CN(CCCP(=O)(O)O)CCN1` (stereo not drawn) [SPE_A60832661], the activation at 10 µM was -0.285%.

Take `O=C1Nc2cc(Cl)c(Cl)cc2N2CCNCC12` (stereo not drawn) [SPE_A62021152]: the activation at 10 µM was -10.8%.

As to `OC(c1ccccc1)C1CCN(CCc2ccccc2)CC1` (stereo not drawn) [SPE_A62057054], the activation at 10 µM worked out at 3.01%.

For the molecule `CC(O)(C(=O)Nc1ccc(S(=O)(=O)c2ccccc2)cc1)C(F)(F)F` (stereo not drawn) [SPE_A62209527], the activation at 10 µM is -3.22%.

As to `CC(CN)CC(=O)O` (stereo not drawn) [SPE_A62890442], the activation at 10 µM is -10.6%.

Regarding `OCCN1C[C@@H](O)[C@@H](O)C(O)C1CO` (stereo partly drawn) [SPE_A63310107], the activation at 10 µM is -7.51%.

Turning to `O=C(NCc1ccc(F)cc1)N1CCN2C(=O)OC(c3ccccc3)(c3ccccc3)C2C1` (stereo not drawn) [SPE_A63344375], the activation at 10 µM was -2.64%.

On to `CC(C)(C)C(=O)OCOC(=O)C1N2C(=O)CC2S(=O)(=O)C1(C)C` (stereo not drawn) [SPE_A63431791], for which the activation at 10 µM is -1.74%.

As for `O=c1[nH]c(=O)n([C@H]2C[C@H](O)[C@@H](CO)O2)cc1/C=C/Br` [SPE_A63675168], the activation at 10 µM is -6.33%.

For the molecule `CC1(C)O[C@@H]2CC3C4C[C@H](F)C5=CC(=O)C=CC5(C)C4C(O)CC3(C)[C@]2(C(=O)CO)O1` (stereo partly drawn) [SPE_A65449987], the activation at 10 µM was found to be 6.74%.

As to `COc1cc(N)c(Cl)cc1C(=O)NC1CN2CCC1CC2` (stereo not drawn) [SPE_A65615053], the activation at 10 µM is -14.1%.

In the case of `CC(=O)OCC(=O)[C@@]1(O)CCC2C3CCC4=CC(=O)CC[C@]4(C)C3[C@@H](O)C[C@@]21C` (stereo partly drawn) [SPE_A65767837], the activation at 10 µM is -13.7%.
